For ten molecules, inhibition in vivo results are on record in patent publication US5151442A, “Chroman derivative active on the central nervous system, their method of preparation and pharmaceutical compositions in which they are present” (Sanofi, priority 1988, dated 1992).

Where a name gives a salt, the structure may show the parent alone.

The test system of the assay is Female mice (Iffa Credo). In words: forced swimming test according to Porsolt et al. (immobility times over 4 minutes, 2nd to 6th minute). The assay is classed as in vivo. The settings on record: Mus musculus, ip, read-out: % inhibition (of the immobility times compared with control animals); for inhibition in vivo at 0.06 mg/kg: 0.06 mg/kg i.p.; for inhibition in vivo at 0.25 mg/kg: 0.25 mg/kg i.p.; for inhibition in vivo at 0.125 mg/kg: 0.125 mg/kg i.p. The procedure:
Thus the products according to the invention were subjected to the forced swimming test according to Porsolt et al. (Archives Internationales de Pharmacodynamie, 1977, 229, 327-336). Female mice (Iffa Credo) weighing 22-24 g are immersed for a period of 6 minutes in a beaker containing 800 ml of water at 24°±1° C. The immobility times are measured over 4 minutes from the 2nd to the 6th minute. The results are expressed as the percentage inhibition of the immobility times of the treated animals compared with the control animals.

Take `CC1(C)Oc2ccc(C#N)cc2[C@@H](Nc2ccccc2)[C@@H]1O` (relative stereo) [SR 46142 A]: the inhibition in vivo at 0.06 mg/kg was 40%.
Regarding `CC1(C)Oc2ccc(C#N)cc2[C@@H](S(=O)(=O)C2CCCCC2)[C@@H]1O` (relative stereo) [SR 44708, Trans-6-cyano-4-cyclohexylsulfonyl-2,2-dimethyl-3-hydroxychroman], the inhibition in vivo at 0.06 mg/kg was 21% and the inhibition in vivo at 0.25 mg/kg was 37%.
As to `CC1(C)C=C(Sc2ccc(Cl)cc2)c2cc(C#N)ccc2O1` [SR 44554, 4-(4-Chlorophenylthio)-6-cyano-2,2-dimethyl-2H-chromene], the inhibition in vivo at 0.06 mg/kg stood at 33%.
Turning to `CC1(C)Oc2ccc(C#N)cc2[C@@H](Nc2ccc(C(F)(F)F)cc2)[C@@H]1O` (relative stereo) [SR 46276], the inhibition in vivo at 0.06 mg/kg worked out at 40%.
As to `CN(C)CCS[C@@H]1c2cc(C#N)ccc2OC(C)(C)[C@H]1O` (relative stereo) [SR 44652, Trans-6-cyano-2,2-dimethyl-4-(2-dimethylaminoethylthio)-3-hydroxychroman hydrochloride], the inhibition in vivo at 0.06 mg/kg turned out to be 25% and the inhibition in vivo at 0.125 mg/kg was found to be 27%.
For the molecule `CC1(C)Oc2ccc(C#N)cc2[C@@H](Nc2ccc(F)cc2)[C@@H]1O` (relative stereo) [SR 46143], the inhibition in vivo at 0.06 mg/kg was 27%.
Turning to `CC1(C)Oc2ccc(C#N)cc2[C@@H](NS(=O)(=O)c2ccccc2C(F)(F)F)[C@@H]1O` (relative stereo) [SR 44665, Trans-6-cyano-2,2-dimethyl-3-hydroxy-4-(2-trifluoromethylbenzene-1-sulfonamido)chroman], the inhibition in vivo at 0.06 mg/kg was 24%.
With `CN(C)S(=O)(=O)N[C@@H]1c2cc(C#N)ccc2OC(C)(C)[C@H]1O` (relative stereo) [SR 44666, Trans-6-cyano-2,2-dimethyl-4-(N,N-dimethylsulfamoylamino)-3-hydroxychroman], the inhibition in vivo at 0.06 mg/kg was determined as 21%. For the setting “1 mg/kg i.p.”, the inhibition in vivo at 1 mg/kg worked out at 23%.
Regarding `CC1(C)Oc2ccc(C#N)cc2[C@@H](Nc2ccc(Cl)cc2)[C@@H]1O` (relative stereo) [SR 44546, Trans-4-(4-chloroanilino)-6-cyano-2,2-dimethyl-3-hydroxychroman], the inhibition in vivo at 0.06 mg/kg was 16% and the inhibition in vivo at 0.25 mg/kg came out at 44%.
With `COC(=O)c1ccccc1N[C@@H]1c2cc(C#N)ccc2OC(C)(C)[C@H]1O` (relative stereo) [SR 44588, Trans-6-cyano-2,2-dimethyl-3-hydroxy-4-(2-methoxycarbonylanilino)chroman], the inhibition in vivo at 0.06 mg/kg turned out to be 20% and the inhibition in vivo at 0.125 mg/kg worked out at 27%.
